Reference: patent US20020193351A1, “Fungicidal and bactericidal compositions for plants containing phosphonate and phosphate salts, metal chelates, and derivatives thereof” (priority 1996, published 2002)
Like-named read-outs stand apart in the source and are kept apart here.

Columns and labels:
plants = conditions: foliar applications; cited from earlier work
Alternaria dauci = assay: Carrot/Alternaria fungicide trial (Example 10); conditions: for AVERAGE % OF INFECTION 04/23/96 / AVERAGE % OF INFECTION 04/05/96: 8 applications; for AVERAGE % OF INFECTION 04/23/96: 25 days after last application; for AVERAGE % OF INFECTION 04/05/96: seven days after last treatment; for Alternaria control on carrots, verdict: Example 10, comment on the table
Method: In the present example, carrots were inoculated with the Alternaria fungus. The carrots were then treated with the below listed fungicidal compositions. Also a control test was conducted. The percentage of the fungicide in the solution is also listed below along with the results. Plot size for testing was a single row of 25 feet by 4 repetitions in an RCB design. The fungicide was applied eight (8) times with the carrots then examined for infection seven (7) days and twenty-five (25) days after the last fungicidal treatment.
PLOT SIZE: Single Row×25 ft.×4 reps in a RCB design. Application dates: 2/2, 9,15,22,3/8,14,22, and 28. Rated 4/5 and 4/23/96
NOTE: Second rating was 25 days after last fungicide application. Plots were inoculated with Alternaria dauci.

[1] = tested on: Phytophthora infestans (Genotype US-8, Matingtype A2); format: in vivo; conditions: for LESIONS PER PLANT / NO. INFECTED LEAFLETS PER PLANT / % LATE BLIGHT: potato, read seven days after inoculation; for % LATE BLIGHT: two treatments 7 days apart, inoculated 7 days later
[2] = tested on: Phytophthora infestans (Genotype US-17, Matingtype A1); format: in vivo; conditions: tomato; 1% v/v; read seven days after inoculation
[3] = tested on: Oak Leaf Blister (Taphrina Caerulescens); assay: Oak Leaf Blister control on laurel oaks (Example 5); format: in vivo; conditions: for DISEASE INDEX: applications in July approximately 3 weeks apart, rated in August, index 1 = no disease to 5 = dead foliage
Text: Applications were made in July approximately 3 weeks apart and rated in August a month later. See data below.

[4] = tested on: bacterial spots on pepper plants; format: in vivo; conditions: weekly applications; g AI/liter: copper+mancozeb 2+1, Cu-EDDHA 0.1, CGA-143268 1.0, other CGA compounds 0.25 and 0.5
Xanthomonas campestris = assay: Xanthomonas leaf spot of croton Codiaeum variegatum (Example 9); format: in vivo; conditions: for AVERAGE % OF INFECTION: 3 weekly foliar applications after inoculation
Method: Croton plants inoculated with Xanthomonas were tested with various fungicides. […] AI/100 gal. and Kocide 101 at 7.4 lbs. AI/Acre (A) were applied as foliar applications to croton (Codiaeum variegatum) previously inoculated with Xanthomonas campestris a day earlier. Treatments were assigned in a RCB design and replicated 10 times with single pots. Treatments were applied 3 times on a weekly schedule and evaluated at 7 and 14 days following the last application. See data below.

Erwinia = Erwinia control on Hibiscus rooted cuttings, dip and spray (Example 7); format: in vivo, Erwinia chrysanthemi; conditions: for AVERAGE % INFECTION: dip, then foliar spray 7 days later
Method: A follow-up experiment to Example 6 was conducted on rooted cuttings which were dipped as they were removed from the propagation bed and foliarly sprayed 7 days later after being potted. […] Potted cuttings had not received any previous bactericide treatments prior to potting.

Erwinia chrysanthemi = assay: Erwinia control on Hibiscus cuttings, foliar spray (Example 6); format: in vivo; conditions: for AVERAGE % INFECTION: rated one week later
Text: Treatments were allowed to dry for one hour and then placed in a commercial propagation bed under intermittent mist and rated for bacterial (Erwinia chrysanthemi) infection one week later.

[5] = tested on: Citrus Greasy Spot perithecia; assay: Citrus Greasy Spot perithecia count on Valencia orange leaves (Example 2); format: in vivo, Mycosphaerella citri; conditions: for #PERITHECIA (Number of Perithecia Per 5 MM Field at 2.5×, Mean of Three Observations): applied mid-July, leaves harvested approximately 4 months later
Method: In the present Example, fungicides were again tested on “Valencia” oranges except the effect of various fungicides on perithecia was tested.
Twenty mature leaves (from the spring flush) per replicate were harvested approximately 4 months later and placed under greenhouse conditions and alternately wetted and dried to simulate natural defoliation and weathering.
These conditions, in turn, cause the fungus to sporulate by the formation of perithecia (spore production body of fungus). The […] were counted as a means of measuring the fungicidal activity of the treatments.
Number of Perithecia Per 5 MM Field at 2.5×—Mean of Three Observations
As used herein, a, b, c, and ab indicate statistical significance using Duncan's multiple range test. In interpreting the data, a different notation, e.g. b versus ab, means there was a statistically significant difference in the results. A difference in data of samples with the same letter notation was not statistically significant.

[6] = 1 gal. (0.53 wt. % AI)/100 gallons
[7] = 1 gal. (0.55 wt. % AI)/100 gallons

In the case of O=C([O-])CN(CCO)CCN(CC(=O)[O-])CC(=O)[O-].[Fe+3] [Fe-HEEDTA, Fe-HEEDTA (hydroxyethylethylenediaminetriacetic acid)], the “Phytotoxicity rankings of Fe chelates” value (plants) is given as “most phytotoxic”.

In the case of “Fe-DTPA (di-ethylenetriaminepentaacetic acid)”, the “Phytotoxicity rankings of Fe chelates” value (plants) is listed as “less phytotoxic”.

With O=P([O-])([O-])O.[K+].[K+] [Sample K2HPO4, dipotassium phosphate] the “AVERAGE % OF INFECTION 04/23/96” value (Alternaria dauci; [6]) was 8.2%, the “AVERAGE % OF INFECTION 04/05/96” value (Alternaria dauci; [6]) was 6.9% and the “LESIONS PER PLANT” value ([1]; 1% v/v) was 41.4. For the same compound, the “NO. INFECTED LEAFLETS PER PLANT” value ([1]; 1% v/v) was 31.1, the “% LATE BLIGHT” value ([1]; 1% v/v) was 18.45% and the “LESIONS PER PLANT” value [2] was 74.8. The “NO. INFECTED LEAFLETS PER PLANT” value [2] was 36.5.

With “Sodium cupric ethylenediamine-di-o-hydroxyphenylacetic acid [Cu-EDDHA]” the “DISEASE INDEX” value ([3]; 8 oz. product/100 gallons) was 2.8, the “Oak leaf blister repression, verdict” value ([3]; Example 5, comment on the table) was “suitable disease repression” and the “Disease severity ranking 12 days after the last (eighth) application” value [4] was “exhibited some control”. The “Disease severity ranking after four applications” value [4] was “CGA-143268 which was equal to copper plus mancozeb and Cu-EDDHA in activity”, the “AVERAGE % OF INFECTION” value (Xanthomonas campestris; 26 ml (.2 lb.) AI/100 gallons) was “.6%” and the “AVERAGE % OF INFECTION” value (Xanthomonas campestris; 52 ml (.4 lb.) AI/100 gallons) was 1.0%. The “Control of Xanthomonas leaf spot of Codiaeum” value (Xanthomonas campestris; compared to inoculated and noninoculated controls, Cu-EDDHA at the lower rate) was “control equal to the noninoculated control treatment”, the “AVERAGE % INFECTION” value (Erwinia; 0.2 LB. AI/100 gallons) was 19% and the “Control of Erwinia on Hibiscus, verdict” value (Erwinia; 0.2 lb. AI) was “excellent control”. For the same compound, the “AVERAGE % INFECTION” value (Erwinia; 0.8 LB. AI/100 gallons) was 32%, the “AVERAGE % OF INFECTION 04/23/96” value (Alternaria dauci; 0.2 lb AI/100 gallons) was 11.6% and the “AVERAGE % OF INFECTION 04/05/96” value (Alternaria dauci; 0.2 lb AI/100 gallons) was 8.8%. The “Alternaria control on carrots, verdict” value (Alternaria dauci) was “effectively limited percentage of fungicidal infection”, the “Control of Erwinia on Hibiscus, verdict” value (Erwinia chrysanthemi; 0.2 lb. AI) was “excellent control” and the “AVERAGE % INFECTION” value (Erwinia chrysanthemi; 0.2 lb. AI Cu/100 gallons foliar spray) was 6%. For the same compound, the “AVERAGE % INFECTION” value (Erwinia chrysanthemi; 0.4 lb. AI Cu/100 gallons foliar spray) was 8%, the “LESIONS PER PLANT” value ([1]; 0.2 lb. AI/acre) was 35.3 and the “NO. INFECTED LEAFLETS PER PLANT” value ([1]; 0.2 lb. AI/acre) was 26.9. The “% LATE BLIGHT” value ([1]; 0.2 lb. AI/acre) was 12.30%, the “Perithecia reduction, verdict” value ([5]; Example 2, comment on the table) was “good results” and the “#PERITHECIA (Number of Perithecia Per 5 MM Field at 2.5×, Mean of Three Observations)” value ([5]; rate 0.2 lbs. AI/100 gallons) was 3.24 b. The “#PERITHECIA (Number of Perithecia Per 5 MM Field at 2.5×, Mean of Three Observations)” value ([5]; rate 0.4 lbs. AI/100 gallons) was 5.93 ab.

For O=C([O-])CN(CCN(CC(=O)[O-])CC(=O)[O-])CC(=O)[O-].[Fe+3] [Fe-EDTA, Fe-EDTA (ethylenediaminetetraacetic acid)], the “Phytotoxicity rankings of Fe chelates” value (plants) is listed as “intermediate phytotoxic”.

With O=[PH]([O-])[O-].[K+].[K+] [Sample K2HPO3] the “AVERAGE % OF INFECTION 04/23/96” value (Alternaria dauci; [7]) was 28.8%, the “AVERAGE % OF INFECTION 04/05/96” value (Alternaria dauci; [7]) was 18.7% and the “Potato late blight control, verdict” value ([1]; Example 11, comment on the table) was “good results in controlling the blight”. For the same compound, the “LESIONS PER PLANT” value ([1]; 1% v/v) was 2.4, the “NO. INFECTED LEAFLETS PER PLANT” value ([1]; 1% v/v) was 1.8 and the “% LATE BLIGHT” value ([1]; 1% v/v) was 1.85%. For the same compound, the “LESIONS PER PLANT” value [2] was 56.7 and the “NO. INFECTED LEAFLETS PER PLANT” value [2] was 21.5.

For “iron ethylenediamine-di-o-hydroxyphenylacetic acid [Fe-EDDHA]”, the “AVERAGE % OF INFECTION 04/23/96” value (Alternaria dauci; 0.2 lb AI/100 gallons) was 12.9%, the “AVERAGE % OF INFECTION 04/05/96” value (Alternaria dauci; 0.2 lb AI/100 gallons) was 12.7% and the “Alternaria control on carrots, verdict” value (Alternaria dauci) was “effective fungicides”.

In the case of CC1COC(Cn2cncn2)(c2ccc(Oc3ccc(Cl)cc3)cc2Cl)O1 (stereo not shown) [Difenconazole, 1-2[2-[4-(4-chlorophenoxy)-2-chlorophenyl-(4-methyl-1,3-dioxolan-2-l)-methyl]]-1H-1 ,2,4-triazole, reference compound], the “DISEASE INDEX” value ([3]; 2 oz. product/100 gallons) is reported as 2.25, the “#PERITHECIA (Number of Perithecia Per 5 MM Field at 2.5×, Mean of Three Observations)” value ([5]; rate 100 gm AI/100 gallons) is reported as 5.32 ab and the “#PERITHECIA (Number of Perithecia Per 5 MM Field at 2.5×, Mean of Three Observations)” value ([5]; rate 200 gm AI/100 gallons) is reported as 11.57 ab.
